# In ChEMBL document CHEMBL5120927, “LEGO-Lipophosphonoxins: A Novel Approach in Designing Membrane Targeting Antimicrobials” (J Med Chem, 2022):
# Activity calls are given as the source filed them. The calls are words filed in the database; no cut-off is given here.
# Tests used:
# Staphylococcus aureus [1] = assay: Antibacterial activity against […] Staphylococcus aureus 4461/A assessed as reduction in microbial growth incubated for 24 hrs by microdilution assay; assay type: functional
# Staphylococcus aureus [2] = assay: microbe, parasite or virus in culture; settings: 4880/C, 24 h
# Description: Antibacterial activity against wild type Staphylococcus aureus 4880/C assessed as reduction in microbial growth incubated for 24 hrs by microdilution assay
# Cell membrane [3] = assay: Induction of cell envelope damage in Staphylococcus aureus assessed as loss of cell integrity at 8 mg/L measured after 8 hrs by scanning electron microscope analysis; assay type: subcellular
# [4] = Cytotoxicity against human HepG2 cells assessed as reduction in cell viability; assay type: toxicity, cell-based
# Staphylococcus aureus [5] = assay: microbe, parasite or virus in culture; settings: 5017/C, 24 h
# Description: Antibacterial activity against wild type Staphylococcus aureus 5017/C assessed as reduction in microbial growth incubated for 24 hrs by microdilution assay
# Staphylococcus aureus [6] = assay: Antibacterial activity against wild type Staphylococcus aureus 4740/B assessed as reduction in microbial growth incubated for 24 hrs by microdilution assay; assay type: functional
# Cell membrane [7] = assay: Induction of plasma membrane depolarization in Escherichia coli CCM 3954 assessed as increase in fluorescence intensity at 2.5 mg/L measured after 80 seconds by DiSC3-5 dye based spectrofluorometer method; assay type: cell membranes; settings: time 80.0 sec
# Staphylococcus aureus [8] = assay: Antibacterial activity against wild type Staphylococcus aureus 4968/C assessed as reduction in microbial growth incubated for 24 hrs by microdilution assay; assay type: functional
# [9] = Gradient chromatographic hydrophobicity index of the compound at pH 3.7 by HPLC analysis; assay type: ADME
# Staphylococcus aureus [10] = assay: Antibacterial activity against wild type Staphylococcus aureus 4679/B assessed as reduction in microbial growth incubated for 24 hrs by microdilution assay; assay type: functional
# Staphylococcus aureus [11] = assay: Antibacterial activity against wild type Staphylococcus aureus 4515/A assessed as reduction in microbial growth incubated for 24 hrs by microdilution assay; assay type: functional
# Staphylococcus aureus [12] = assay: Antibacterial activity against wild type Staphylococcus aureus 4557/A assessed as reduction in microbial growth incubated for 24 hrs by microdilution assay; assay type: functional
# Escherichia coli [13] = assay: Antibacterial activity against Escherichia coli CCM 3954 assessed as time to reduce microbial population at 2 mg/L measured by time-kill assay; assay type: functional
# Enterococcus faecalis = assay: Antibacterial activity against Enterococcus faecalis ATCC 29212 = CCM 4224 assessed as inhibition of bacterial growth incubated for 24 hrs by microdilution assay; assay type: functional
# Escherichia coli [14] = assay: Antibacterial activity against Escherichia coli ATCC 25922 = CCM 3954 assessed as inhibition of bacterial growth incubated for 24 hrs by microdilution assay; assay type: functional
# Cell membrane [15] = assay: Induction of cell envelope damage in Staphylococcus aureus assessed as membranous nanotubes extrude from dying/dead cells at 8 mg/L measured after 8 hrs by scanning electron microscope analysis
# Staphylococcus aureus [16] = assay: Antibacterial activity against Staphylococcus aureus ATCC 29213 = CCM 4223 assessed as inhibition of bacterial growth incubated for 24 hrs by microdilution assay; assay type: functional
# Staphylococcus aureus [17] = assay: Antibacterial activity against Staphylococcus aureus ATCC 29213 = CCM 4223 assessed as inhibition of bacterial growth incubated for 24 hrs in presence of BSA by microdilution assay; assay type: functional
# Pseudomonas aeruginosa [18] = assay: Antibacterial activity against Pseudomonas aeruginosa assessed as reduction in microbial growth measured after 20 cycles by microdilution assay; assay type: functional; settings: time 24 hrs
# Pseudomonas aeruginosa [19] = assay: Antibacterial activity against Pseudomonas aeruginosa ATCC 27853 = CCM 3955 assessed as inhibition of bacterial growth incubated for 24 hrs by microdilution assay; assay type: functional
# Enterococcus faecium = assay: Antibacterial activity against vancomycin resistant Enterococcus faecium 419/ANA assessed as reduction in microbial growth incubated for 24 hrs by microdilution assay; assay type: functional
# Staphylococcus aureus [20] = assay: Antibacterial activity against wild type Staphylococcus aureus 4717/B assessed as reduction in microbial growth incubated for 24 hrs by microdilution assay; assay type: functional
# [21] = Toxicity in human cornea epidermis model assessed as tissue viability pretreated for 1 hr and measured after 42 hrs by MTT assay relative to control; assay type: tissue-based; settings: read-out: Activity
# Cell membrane [22] = assay: Induction of cell envelope damage in Staphylococcus aureus assessed as tubular structure at 8 mg/L measured after 8 hrs by scanning electron microscope analysis
# Escherichia coli [23] = assay: Antibacterial activity against Escherichia coli CCM 3954 persisters assessed as reduction in bacterial cell count at 1 to 10 times MICincubated for 3 hrs by cell counting method; assay type: functional, organism-based
# Staphylococcus aureus [24] = assay: Antibacterial activity against wild type Staphylococcus aureus 4566/A assessed as reduction in microbial growth incubated for 24 hrs by microdilution assay; assay type: functional
# Staphylococcus aureus [25] = assay: Antibacterial activity against […] Staphylococcus aureus 4460/A assessed as reduction in microbial growth incubated for 24 hrs by microdilution assay; assay type: functional
# Staphylococcus aureus [26] = assay: Antibacterial activity against Staphylococcus aureus CCM 4223 persisters assessed as reduction in bacterial cell count at 1 to 10 times MIC incubated for 3 hrs by cell counting method; assay type: functional, organism-based
# Cell membrane [27] = assay: Induction of cell envelope damage in Staphylococcus aureus assessed as loss of cytoplasmic content at 8 mg/L measured after 8 hrs by scanning electron microscope analysis; assay type: subcellular
# Staphylococcus aureus [28] = assay: Antibacterial activity against wild type Staphylococcus aureus 4502/A assessed as reduction in microbial growth incubated for 24 hrs by microdilution assay; assay type: functional
# [29] = Toxicity in rabbit assessed as skin irritation at 100 to 200 mg/L after administration bandaged for 4 hrs and measured after 1 to 72 hrs of contact time; set-up: species or system Oryctolagus cuniculus; settings: in vivo, topical_or_ocular, dose lower 100 mg/L, time lower 1 hrs, dose upper 200 mg/L, time upper 76 hrs
# Staphylococcus aureus [30] = assay: microbe, parasite or virus in culture; settings: 4862/C, 24 h
# Description: Antibacterial activity against wild type Staphylococcus aureus 4862/C assessed as reduction in microbial growth incubated for 24 hrs by microdilution assay
# Staphylococcus aureus [31] = assay: Antibacterial activity against wild type Staphylococcus aureus 4788/B assessed as reduction in microbial growth incubated for 24 hrs by microdilution assay; assay type: functional
# [32] = Hemolytic activity in human RBC assessed as haemoglobin release measured after 3 hr; assay type: toxicity, cell-based, Erythrocyte; settings: red blood cells (erythrocytes)
# Lipid bilayer = assay: Induction of membrane disruption of bacterial inner membrane mimic DOPE/DOPG (2:1) large unilamellar vesicles assessed as carboxyfluorescein leakage at 2.5 mg/L measured after 90 mins by spectrofluorometer analysis
# Staphylococcus aureus [33] = assay: Antibacterial activity against wild type Staphylococcus aureus 4883/C assessed as reduction in microbial growth incubated for 24 hrs by microdilution assay; assay type: functional
# Cell membrane [34] = assay: Induction of membrane permeabilization in Escherichia coli CCM 3954 assessed as propidium iodide influx measured after 80 mins by spectrofluorometer method; settings: dose 2.5-5 mg/L, DDE = dose-dependent effect
# Staphylococcus aureus [35] = assay: Antibacterial activity against wild type Staphylococcus aureus 4561/A assessed as reduction in microbial growth incubated for 24 hrs by microdilution assay; assay type: functional
# Escherichia coli [36] = assay: Bactericidal activity against Escherichia coli CCM 3954 assessed as reduction in viable cell count measured after 24 hrs by Time kill assay; assay type: functional, organism-based; settings: dose 2-8 mg/L, DDE = dose-dependent effect
# Staphylococcus aureus [37] = assay: Antibacterial activity against wild type Staphylococcus aureus 4738/B assessed as reduction in microbial growth incubated for 24 hrs by microdilution assay; assay type: functional
# Staphylococcus aureus [38] = assay: Antibacterial activity against […] Staphylococcus aureus 4463/A assessed as reduction in microbial growth incubated for 24 hrs by microdilution assay; assay type: functional
# Staphylococcus aureus [39] = assay: Antibacterial activity against wild type Staphylococcus aureus 4504/A assessed as reduction in microbial growth incubated for 24 hrs by microdilution assay; assay type: functional
# Staphylococcus aureus [40] = assay: Antibacterial activity against wild type Staphylococcus aureus 4904/C assessed as reduction in microbial growth incubated for 24 hrs by microdilution assay; assay type: functional
smiles,measurement,setting,value
CCCCCCCCOP(=O)(CCN(CCCN)CCCN)OCCCCCCOP(=O)(CCN(CCCN)CCCN)OCCCCCCCC.Cl.Cl.Cl.Cl.Cl.Cl (stereo not drawn),MIC,Staphylococcus aureus [1],0.5 µg/mL
same,MIC,Staphylococcus aureus [2],0.5 µg/mL
same,Activity,Cell membrane [3],Active
same,CC50,[4],33.1 µM
same,MIC,Staphylococcus aureus [5],0.5 µg/mL
same,MIC,Staphylococcus aureus [6],0.5 µg/mL
same,Activity,Cell membrane [7],Active
same,MIC,Staphylococcus aureus [8],1 µg/mL
same,CHI,[9],36.9
same,MIC,Staphylococcus aureus [10],0.5 µg/mL
same,MIC,Staphylococcus aureus [11],1 µg/mL
same,MIC,Staphylococcus aureus [12],0.5 µg/mL
same,Time,Escherichia coli [13],12 h
same,MIC,Enterococcus faecalis,1 µg/mL
same,MIC,Escherichia coli [14],0.5 µg/mL
same,Activity,Cell membrane [15],Active
same,MIC,Staphylococcus aureus [16],0.5 µg/mL
same,MIC,Staphylococcus aureus [17],1 µg/mL
same,fold change (FC),Pseudomonas aeruginosa [18],32
same,MIC,Pseudomonas aeruginosa [19],2 µg/mL
same,MIC,Enterococcus faecium,8 µg/mL
same,MIC,Staphylococcus aureus [20],0.5 µg/mL
same,viability at 42 h,[21],> 60%
same,Activity,Cell membrane [22],Active
same,Activity,Escherichia coli [23],Active
same,MIC,Staphylococcus aureus [24],0.5 µg/mL
same,MIC,Staphylococcus aureus [25],1 µg/mL
same,Activity,Staphylococcus aureus [26],Active
same,Activity,Cell membrane [27],Active
same,MIC,Staphylococcus aureus [28],1 µg/mL
same,Activity,[29],Non-Toxic
same,MIC,Staphylococcus aureus [30],0.5 µg/mL
same,MIC,Staphylococcus aureus [31],0.5 µg/mL
same,HC50 at 3 h,[32],162 µg/mL
same,Activity,Lipid bilayer,Active
same,MIC,Staphylococcus aureus [33],1 µg/mL
same,Activity,Cell membrane [34],Dde
same,MIC,Staphylococcus aureus [35],0.5 µg/mL
same,Activity,Escherichia coli [36],Dde
same,MIC,Staphylococcus aureus [37],0.5 µg/mL
same,MIC,Staphylococcus aureus [38],1 µg/mL
same,MIC,Staphylococcus aureus [39],0.5 µg/mL
same,MIC,Staphylococcus aureus [40],0.5 µg/mL
